Measurements published in ChEMBL document CHEMBL1155698, “Two new antimicrobial lysoplasmanylinositols from the marine sponge Theonella swinhoei” (2001).
Active and inactive are the calls of the source. No cut-off for these calls is given here.

Key:
Umbelopsis ramanniana = assay: Antimicrobial activity against Mortierella ramanniana; format: functional, organism-based
Escherichia coli [1] = assay: Antimicrobial activity against Escherichia coli by […]; format: functional, organism-based
Escherichia coli [2] = assay: Antimicrobial activity against Escherichia coli at 50 ug/disk; format: functional; settings: read-out: IZ

CCCCCCC1C(C)C1CCCCCCCOC[C@@H](O)COP(=O)(O)O[C@@H]1[C@@H](O)[C@H](O)[C@@H](O)[C@H](O)[C@@H]1O (some centres undefined)
Activity (Umbelopsis ramanniana): inactive | Activity (Escherichia coli [1]): Active

CCCCCCCC(C)CCCCCCCCOC[C@@H](O)COP(=O)(O)O[C@@H]1[C@@H](O)[C@H](O)[C@@H](O)[C@H](O)[C@@H]1O (some centres undefined)
Activity (Umbelopsis ramanniana): inactive | zone of inhibition at 50 µg/disc (Escherichia coli [2]): 12 mm
